Experimental data as given in US10738028B2, “Spiro three-membered ring, spiro five-membered ring peptide deformylase inhibitor and use thereof in antibacteria and anti-tumor” (priority 2016, dated 2020).

What was measured:
Assay type in all cases: cell-based
[1] = tested on: Enterococcus faecalis (EFA); assay: MIC, two-fold agar dilution (CLSI), clinical isolates
Method in brief: (§1)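 CLSI two-fold agar dilution; MIC of test samples read per tested strain.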

[2] = tested on: Enterococcus faecium (EFM); assay: as above
Method in brief: as §1

[3] = tested on: Escherichia coli (including ESBLs, non-ESBLs); assay: as above
Method in brief: as §1

[4] = tested on: Moraxella catarrhalis (BCA); assay: as above
Method in brief: as §1

[5] = tested on: Streptococcus pneoumoniae (SPN); assay: as above
Method in brief: as §1

[6] = tested on: methicillin-resistant Staphylococcus aureus (MRSA); assay: as above
Method in brief: as §1

[7] = tested on: methicillin-resistant Staphylococcus epidermidis (MRSE); assay: as above
Method in brief: as §1

[8] = tested on: methicillin-sensitive Staphylococcus aureus (MSSA); assay: as above
Method in brief: as §1

[9] = tested on: methicillin-sensitive Staphylococcus epidermidis (MSSE); assay: as above
Method in brief: as §1

[10] = tested on: HCT-116 colorectal cancer cell line; assay: CCK-8 proliferation inhibition; details: Homo sapiens, HCT-116, 72 h, concentration of 30 μM; 72 hours; CCK-8; read-out: HCT116 inhibition rate/%
Method in brief: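 Cells seeded at 2000 cells/well, cultured overnight at 37 °C, 5% CO2, then exposed to compound (DMSO; control 1‰ DMSO) for 72 h in McCoy's 5A with 10% newborn bovine serum. Viability read with 1:10 diluted CCK-8.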

O=C(C[C@@H](CC1CCCC1)C(=O)N1CC2(CC2)C[C@H]1C(=O)Nc1nncs1)NO [Example 74]
Anti-bacterial activity (MIC) ([1]; strain EFA 15-1): > 32 µg/mL
Anti-bacterial activity (MIC) ([1]; strain EFA 15-2): > 32 µg/mL
Anti-bacterial activity (MIC) ([1]; strain EFA 15-3): 16 µg/mL
Anti-bacterial activity (MIC) ([1]; strain EFA 15-4): > 32 µg/mL
Anti-bacterial activity (MIC) ([1]; strain EFA 15-5): > 32 µg/mL
Anti-bacterial activity (MIC) ([1]; strain EFA 15-6): > 32 µg/mL
Anti-bacterial activity (MIC) ([1]; strain EFA 15-9): > 32 µg/mL
Anti-bacterial activity (MIC) ([2]; strain EFM 15-1): 16 µg/mL
Anti-bacterial activity (MIC) ([2]; strain EFM 15-2): 32 µg/mL
Anti-bacterial activity (MIC) ([2]; strain EFM 15-3): 4 µg/mL
Anti-bacterial activity (MIC) ([2]; strain EFM 15-4): 32 µg/mL
Anti-bacterial activity (MIC) ([2]; strain EFM 15-5): 4 µg/mL
Anti-bacterial activity (MIC) ([2]; strain EFM 15-6): 32 µg/mL
Anti-bacterial activity (MIC), strain ECO+ 15-1 ([3]; clinical isolate ECO+ 15-1): 32 µg/mL
Anti-bacterial activity (MIC), strain ECO+ 15-2 ([3]; clinical isolate ECO+ 15-2): > 32 µg/mL
Anti-bacterial activity (MIC), strain ECO+ 15-3 ([3]; clinical isolate ECO+ 15-3): > 32 µg/mL
Anti-bacterial activity (MIC), strain ECO+ 15-4 ([3]; clinical isolate ECO+ 15-4): > 32 µg/mL
Anti-bacterial activity (MIC), strain ECO− 15-1 ([3]; clinical isolate ECO− 15-1): > 32 µg/mL
Anti-bacterial activity (MIC), strain ECO− 15-2 ([3]; clinical isolate ECO− 15-2): > 32 µg/mL
Anti-bacterial activity (MIC), strain ECO− 15-3 ([3]; clinical isolate ECO− 15-3): > 32 µg/mL
Anti-bacterial activity (MIC), strain ECO− 15-4 ([3]; clinical isolate ECO− 15-4): > 32 µg/mL
Anti-bacterial activity (MIC) ([4]; strain BCA 14-1): > 32 µg/mL
Anti-bacterial activity (MIC) ([4]; strain BCA 14-4): > 32 µg/mL
Anti-bacterial activity (MIC) ([4]; strain BCA 14-5): 16 µg/mL
Anti-bacterial activity (MIC) ([4]; strain BCA 14-6): > 32 µg/mL
Anti-bacterial activity (MIC) ([4]; strain BCA 14-7): > 32 µg/mL
Anti-bacterial activity (MIC) ([4]; strain BCA 14-8): > 32 µg/mL
Anti-bacterial activity (MIC) ([4]; strain BCA 14-10): > 32 µg/mL
Anti-bacterial activity (MIC) ([5]; strain SPN 16-2): 32 µg/mL
Anti-bacterial activity (MIC) ([5]; strain SPN 16-4): 4 µg/mL
Anti-bacterial activity (MIC), strain MRSA 15-1 ([6]; clinical isolate MRSA 15-1): 4 µg/mL
Anti-bacterial activity (MIC), strain MRSA 15-2 ([6]; clinical isolate MRSA 15-2): 8 µg/mL
Anti-bacterial activity (MIC), strain MRSA 15-3 ([6]; clinical isolate MRSA 15-3): 5 µg/mL
Anti-bacterial activity (MIC), strain MRSA 15-4 ([6]; clinical isolate MRSA 15-4): 8 µg/mL
Anti-bacterial activity (MIC), strain MRSE 15-1 ([7]; clinical isolate MRSE 15-1): 0.5 µg/mL
Anti-bacterial activity (MIC), strain MRSE 15-2 ([7]; clinical isolate MRSE 15-2): 1 µg/mL
Anti-bacterial activity (MIC), strain MRSE 15-3 ([7]; clinical isolate MRSE 15-3): 1 µg/mL
Anti-bacterial activity (MIC), strain MRSE 15-7 ([7]; clinical isolate MRSE 15-7): 4 µg/mL
Anti-bacterial activity (MIC), strain MSSA 15-3 ([8]; clinical isolate MSSA 15-3): 4 µg/mL
Anti-bacterial activity (MIC), strain MSSA 15-4 ([8]; clinical isolate MSSA 15-4): 4 µg/mL
Anti-bacterial activity (MIC), strain MSSA 15-5 ([8]; clinical isolate MSSA 15-5): 2 µg/mL
Anti-bacterial activity (MIC), strain MSSA 15-6 ([8]; clinical isolate MSSA 15-6): 4 µg/mL
Anti-bacterial activity (MIC), strain MSSE 15-3 ([9]; clinical isolate MSSE 15-3): 1 µg/mL
Anti-bacterial activity (MIC), strain MSSE 15-4 ([9]; clinical isolate MSSE 15-4): 1 µg/mL
Anti-bacterial activity (MIC), strain MSSE 15-5 ([9]; clinical isolate MSSE 15-5): 1 µg/mL
Anti-bacterial activity (MIC), strain MSSE 15-6 ([9]; clinical isolate MSSE 15-6): 1 µg/mL
inhibition at 30 µM [10]: 1%

CCCC[C@H](CC(=O)NO)C(=O)N1CC2(CCCC2)C[C@H]1C(=O)Nc1cc(C)on1 [Example 80, (S)-2-((R)-2-(2-(hydroxyamino)-2-oxoethyl)hexanoyl)-N-(5-methylisoxazol-3-yl)-2-spiro[4.4]nonane-3-carboxamide]
Anti-bacterial activity (MIC) ([1]; strain EFA 15-1): 16 µg/mL
Anti-bacterial activity (MIC) ([1]; strain EFA 15-2): > 16 µg/mL
Anti-bacterial activity (MIC) ([1]; strain EFA 15-3): 8 µg/mL
Anti-bacterial activity (MIC) ([1]; strain EFA 15-4): > 16 µg/mL
Anti-bacterial activity (MIC) ([1]; strain EFA 15-5): > 16 µg/mL
Anti-bacterial activity (MIC) ([1]; strain EFA 15-6): > 16 µg/mL
Anti-bacterial activity (MIC) ([1]; strain EFA 15-9): > 16 µg/mL
Anti-bacterial activity (MIC) ([2]; strain EFM 15-1): 8 µg/mL
Anti-bacterial activity (MIC) ([2]; strain EFM 15-2): 4 µg/mL
Anti-bacterial activity (MIC) ([2]; strain EFM 15-3): 8 µg/mL
Anti-bacterial activity (MIC) ([2]; strain EFM 15-4): 4 µg/mL
Anti-bacterial activity (MIC) ([2]; strain EFM 15-5): 2 µg/mL
Anti-bacterial activity (MIC) ([2]; strain EFM 15-6): 8 µg/mL
Anti-bacterial activity (MIC) ([3]; strain ECO+ 15-1): > 16 µg/mL
Anti-bacterial activity (MIC) ([3]; strain ECO+ 15-2): 16 µg/mL
Anti-bacterial activity (MIC) ([3]; strain ECO+ 15-3): > 16 µg/mL
Anti-bacterial activity (MIC) ([3]; strain ECO+ 15-4): > 16 µg/mL
Anti-bacterial activity (MIC) ([3]; strain ECO− 15-1): > 16 µg/mL
Anti-bacterial activity (MIC) ([3]; strain ECO− 15-2): > 16 µg/mL
Anti-bacterial activity (MIC) ([3]; strain ECO− 15-3): > 16 µg/mL
Anti-bacterial activity (MIC) ([3]; strain ECO− 15-4): > 16 µg/mL
Anti-bacterial activity (MIC) ([4]; strain BCA 14-1): 8 µg/mL
Anti-bacterial activity (MIC) ([4]; strain BCA 14-4): 8 µg/mL
Anti-bacterial activity (MIC) ([4]; strain BCA 14-5): 2 µg/mL
Anti-bacterial activity (MIC) ([4]; strain BCA 14-6): 8 µg/mL
Anti-bacterial activity (MIC) ([4]; strain BCA 14-7): 4 µg/mL
Anti-bacterial activity (MIC) ([4]; strain BCA 14-8): 8 µg/mL
Anti-bacterial activity (MIC) ([4]; strain BCA 14-10): 4 µg/mL
Anti-bacterial activity (MIC) ([5]; strain SPN 16-2): 8 µg/mL
Anti-bacterial activity (MIC) ([5]; strain SPN 16-4): 4 µg/mL
Anti-bacterial activity (MIC) ([6]; strain MRSA 15-1): 1 µg/mL
Anti-bacterial activity (MIC) ([6]; strain MRSA 15-2): 2 µg/mL
Anti-bacterial activity (MIC) ([6]; strain MRSA 15-3): 1 µg/mL
Anti-bacterial activity (MIC) ([6]; strain MRSA 15-4): 2 µg/mL
Anti-bacterial activity (MIC) ([7]; strain MRSE 15-1): 0.25 µg/mL
Anti-bacterial activity (MIC) ([7]; strain MRSE 15-2): 0.5 µg/mL
Anti-bacterial activity (MIC) ([7]; strain MRSE 15-3): 0.5 µg/mL
Anti-bacterial activity (MIC) ([7]; strain MRSE 15-7): 2 µg/mL
Anti-bacterial activity (MIC) ([8]; strain MSSA 15-3): 2 µg/mL
Anti-bacterial activity (MIC) ([8]; strain MSSA 15-4): 1 µg/mL
Anti-bacterial activity (MIC) ([8]; strain MSSA 15-5): 0.5 µg/mL
Anti-bacterial activity (MIC) ([8]; strain MSSA 15-6): 1 µg/mL
Anti-bacterial activity (MIC) ([9]; strain MSSE 15-3): 1 µg/mL
Anti-bacterial activity (MIC) ([9]; strain MSSE 15-4): 0.25 µg/mL
Anti-bacterial activity (MIC) ([9]; strain MSSE 15-5): 0.25 µg/mL
Anti-bacterial activity (MIC) ([9]; strain MSSE 15-6): 0.25 µg/mL
inhibition at 30 µM [10]: 11%
